In publication PMC7954794, “Protein context shapes the specificity of SH3 domain-mediated interactions in vivo” (Nature Communications, 2021):

How the values were obtained:
P130CAS/BCAR1 = test: Co-immunoprecipitation / Western blot NCK2-P130CAS/BCAR1 (Fig. S6C-D); assay type: cell-based, human; conditions: Prey P130CAS, sheet FigS6A-D
Method: Human embryonic kidney 293T cells (HEK293T, ATCC:CRL-3216) were grown in Dulbecco’s Modified Eagle’s medium (DMEM) high glucose complemented with 10% fetal calf serum under 5% CO2 at 37 °C. Transient expression of cDNA in cells was performed by polyethylenimine (PEI, Millipore Sigma) transfections. Enrichment of phospho-dependent PPIs was done by treating HEK293T cells with the tyrosine phosphatase inhibitor pervanadate, freshly made by mixing 4 mM orthovanadate (Millipore Sigma) with 30% H2O2 (Millipore Sigma) in water in a 200:1 volume ratio.
(§1) For the experiments with HEK293T cells (1 × 10cm confluent dish for WB and 3 × 15cm for MS), cells were washed in ice-cold PBS and lysed in lysis buffer (20 mM Tris-HCl pH 7.4, 150 mM NaCl, 1 mM EDTA, 0.5% sodium deoxycholate (Millipore Sigma), 10 mM beta-glycerophosphate (Millipore Sigma), 10 mM sodium pyrophosphate (Millipore Sigma), 50 mM NaF (Millipore Sigma)). Protease inhibitors were added to the lysis buffer (P8340 (Millipore Sigma) for WB and PMSF 1 mM, aprotinin 10 µg/mL, leupeptin 10 µg/mL and pepstatin 10 µg/mL (all Millipore Sigma) for MS). Cells were scraped in the lysis buffer and lysed at 4 °C for 20 min and centrifuged for another 20 min at 20,000 g at 4 °C. Bait proteins from the supernatant were immunoprecipitated for 90 min at 4 °C with FLAG-M2 agarose beads (Millipore Sigma) and washed three times in the lysis buffer. Beads were then used for WB or MS experiments (see below).
(§2) Protein extracts and affinity-purified baits from yeast and human lysed cells were migrated on 10% polyacrylamide gels. The separated proteins were then transferred to nitrocellulose membranes. Validation of correct protein loading was done with ponceau staining of the membranes. Before the primary antibody incubations, membranes were blocked in 5% milk. Protein signals were detected on an Amersham Imager 600RGB (GE Healthcare) following the incubation of the membranes with the appropriate HRP-conjugated secondary antibodies and the Clarity Western ECL Substrate (Bio-Rad). The antibodies used in this study are M2-HRP (A8592, Sigma, 1/50,000), rabbit anti-FLAG (F7425, Sigma, 1/1000), PAK (SC-881, Santa Cruz, 1/200), p130cas/BCAR1 (SC-860, Santa Cruz, 1/200), actin (Cell Signaling Technology, 1/2000), anti-mouse HRP (Cell Signaling Technology, 1/10,000) and anti-rabbit HRP (Cell Signaling Technology, 1/10,000). The quantification of the WB signals was performed with the Amersham Imager 600 analysis software (GE Healthcare).
(§3) Supplementary Fig. 6| NCK2 SH3 shuffling affects its interactions with PAK1 and P130CAS/BCAR1 in cells but only slightly alters the availability of the SH3 binding pockets in vitro. A, Western blot analysis of NCK2 SH3-shuffled proteins interaction with PAK1. Each bait is N-terminally fused to a 3XFLAG tag. Loading corresponds to Ponceau staining of the nitrocellulose membrane. Experiment was performed in four replicates in HEK293T cells. B, Western blot quantification of PAK1 co-immunoprecipitation with NCK2.
(§4) Average log2 ratio relative to the WT protein is shown (NCK2mut/NCK2WT, WT NCK2 log2 ratio = 0). Ratios from replicates were compared t o WT NCK2 via pairwise ANOVA statistical […]
(§5) bars indicate the SD. C, Western blot analysis of NCK2 SH3-shuffled proteins association with SH2 target P130CAS/BCAR1. The experiment was performed in four replicates in HEK293T cells stimulated with the tyrosine phosphatase inhibitor pervanadate. D, Quantification of the Western blot signals of P130CAS co-immunoprecipitation with NCK2 as in B,. The four ratios of the replicates were compared to WT NCK2 via pairwise ANOVA statistical test (p -values: […]

PAK1 = test: Co-immunoprecipitation / Western blot NCK2-PAK1 (Fig. S6A-B); assay type: cell-based, human; conditions: Prey PAK1, sheet FigS6A-D
Method: as §1, §2, §3, §4, §5
(1 picture or pasted object on this page, not shown here)

ABP1 = test: DHFR-PCA on solid medium, bait ABP1 (Fig. 1B); assay type: cell-based, Saccharomyces cerevisiae; conditions: bait ABP1, label = prey; 2-4 replicates
Source text: (§6) Supplement 41467_2021_21873_MOESM8_ESM.xlsx, sheet "Fig1B" | column: medsize; medrep; Ratio; Score

BUD14 = test: DHFR-PCA on solid medium, bait BUD14 (Fig. 1B); assay type: cell-based, Saccharomyces cerevisiae; conditions: bait BUD14, label = prey; for medrep (log2 median colony size normalized to plate background, PCA score): 4 replicates; for Ratio (SH3-deleted/WT medrep): only significant differences showed, PPIs completely lost have a ratio of 0.1 and the gained PPIs 2.5
Source text: as §6

[1] = test system: 575 putative partners (preys) of 22 WT SH3-containing proteins; test: DHFR-PCA on solid medium, WT and SH3-deleted baits (Fig. 1B); assay type: cell-based, Saccharomyces cerevisiae; design: key to Score: 0: SH3-independent; 1: SH3-dependent PPIs; 2: SH3-inhibited PPIs; conditions: for medrep (log2 median colony size normalized to plate background, PCA score): bait SLA1-3, DHFR-PCA, label = prey, Replicates 4 (2 for YCR009C, YDR388W, YIL033C); for Score: bait SLA1-3, label = prey
Source text: To assess the requirement of SH3 domains for PPIs in vivo, we first measured binary interactions between 22 WT SH3-containing proteins (Supplementary Fig. 1A) as baits and 575 putative partners from their interconnected signaling networks using the dihydrofolate reductase protein–fragment complementation assay (DHFR-PCA) in the budding yeast Saccharomyces cerevisiae. About 33% (202/607) of the PPIs detected were described before, mostly by direct methods (Supplementary Fig. 1B, C)[11]. We repeated the experiments with baits in which the SH3s were individually replaced with a flexible linker by genome editing (SH3 domain deletion/stuffing, Fig. 1A). The stuffer DNA sequence ([…]) codes for a small flexible poly-Gly with Ser peptide ([…]) that is inspired by previous experiments[12],[13]. About a third of the SH3-containing protein interactome is qualitatively or quantitatively SH3-dependent (171 PPIs out of 607, Fig. 1B and Supplementary Fig. 1B, C). We validated the vast majority of the quantitative changes in low-throughput experiments and excluded that this is simply due to changes in protein abundance in most cases (Supplementary Fig. 1D–G). SH3-binding motifs[14] are more frequent in the SH3-dependent PPI partners when compared to sequences from random proteins, SH3-independent PPI partners or PPI partners that are stronger or gained following SH3 deletions (p values = 1.5 × 10^−17, 0.0038 and 2.1 × 10^−08, respectively; Mann–Whitney test, one-tailed, Fig. 1C). The changes we measure are therefore enriched for PPIs that depend on the direct interactions of the domains with the PPI partners.
The complete list of strains, primers, and gRNAs used in this study can be found in Supplementary Tables 1–3. All constructed yeast strains were validated by polymerase chain reaction (PCR) and confirmed by Sanger sequencing of the locus of interest. Bait strains for the DHFR-PCA experiments were constructed as follows. The genes of interest were fused at their genomic 3′ end by replacing the stop codon with a linker ([…]), the DHFR F[1,2] followed by a smaller linker (GGGGS), a 1× FLAG tag ([…]) and the NATMX4 resistance cassette via homologous recombination (all amplified from pAG25-DHFR[1,2]-linker-FLAG). The set of 615 prey strains (DHFR F[3] fusions in the BY4742 background) were retrieved from the Yeast Protein Interactome Collection[43] with the exception of 73 that were reconstructed (Supplementary Tables 1 and 2). Knockout strains were taken from the yeast knockout collection except for ABP1, BEM1, BZZ1, and SLA1, which were reconstructed by replacing the ORFs with the NATMX4 resistance cassette by homologous recombination in the BY4741 background.
Yeast SH3 domain genomic sequences were replaced by CRISPR–Cas9 genome editing. Each SH3 domain (as defined by the SMART database V8.0 except for Ysc84 SH3 (as defined by PROSITE), see Source Data for all SH3 sequences and Supplementary Table 1 for primers used) was specifically targeted by one gRNA[46]. Yeast competent cells were co-transformed with a pCAS plasmid (Addgene plasmid 60847[47]) expressing both the gRNA of interest and Streptococcus pyogenes Cas9[46] and a donor DNA sequence (stuffer) with 60 bp homology arms surrounding the SH3 DNA sequence. The Stuffer DNA was either PCR amplified or digested from a plasmid. The stuffer DNA sequence ([…]) codes for a small flexible linker ([…]) inspired by protein linkers used in structural biology[12],[13]. This type of linker is frequently used for fusing proteins without affecting the structure of the linked proteins.
The overall DHFR-PCA pipeline is based on Tarassov et al.[43] and the procedures have also been published as a visualized protocol. The screens were performed with robotically manipulated pin tools (BM5-SC1, S&P Robotics Inc.). First, the preys were cherry-picked from 96-well plates to omnitrays in a 384 format on YPD + HPH solid media. […]

BEM1-1 = test: DHFR-PCA on solid medium, bait BEM1-1 (Fig. 1B); assay type: cell-based, Saccharomyces cerevisiae; conditions: bait BEM1-1, label = prey; for medrep (log2 median colony size normalized to plate background, PCA score): 2-8 replicates
Source text: as §6

BOI2 = test: DHFR-PCA on solid medium, bait BOI2 (Fig. 1B); assay type: cell-based, Saccharomyces cerevisiae; conditions: bait BOI2, label = prey; for medrep (log2 median colony size normalized to plate background, PCA score): 3-8 replicates
Source text: as §6

BBC1 = test: DHFR-PCA on solid medium, bait BBC1 (Fig. 1B); assay type: cell-based, Saccharomyces cerevisiae; conditions: bait BBC1, label = prey; 2-4 replicates
Source text: as §6

BZZ1-1 = test: DHFR-PCA on solid medium, bait BZZ1-1 (Fig. 1B); assay type: cell-based, Saccharomyces cerevisiae; conditions: bait BZZ1-1, label = prey; 4 replicates
Source text: Supplement 41467_2021_21873_MOESM8_ESM.xlsx, sheet "Fig1B" | column: medsize; medrep; Score

BEM1-2 = test: DHFR-PCA on solid medium, bait BEM1-2 (Fig. 1B); assay type: cell-based, Saccharomyces cerevisiae; conditions: bait BEM1-2, label = prey; 2-8 replicates
Source text: as §6

BOI1 = test: DHFR-PCA on solid medium, bait BOI1 (Fig. 1B); assay type: cell-based, Saccharomyces cerevisiae; conditions: bait BOI1, label = prey
Source text: as §6

[2] = average of R1-R4, SD in next column
[3] = only significant differences showed, PPIs completely lost have a ratio of 0.1 and the gained PPIs 2.5

| Substance | medrep (log2 median colony size normalized to plate background, PCA score) (ABP1) | medrep (log2 median colony size normalized to plate background, PCA score) (BUD14) | Ratio (SH3-deleted/WT medrep) (BUD14) | medrep (log2 median colony size normalized to plate background, PCA score) [1] | Score [1] | medrep (log2 median colony size normalized to plate background, PCA score) (BEM1-1) | medrep (log2 median colony size normalized to plate background, PCA score) (BOI2) | medrep (log2 median colony size normalized to plate background, PCA score) (BBC1) | medrep (log2 median colony size normalized to plate background, PCA score) (BZZ1-1) | medrep (log2 median colony size normalized to plate background, PCA score) (BEM1-2) | also measured |
| --- | --- | --- | --- | --- | --- | --- | --- | --- | --- | --- | --- |
| NCK2 WT |  |  |  |  |  |  |  |  |  |  | Log2 ratio average (P130CAS/BCAR1; [2]): 0; Log2 ratio on WT R1 (P130CAS/BCAR1; replicate R1): 0; Ratio on WT R1 (P130CAS/BCAR1; replicate R1): 1; Log2 ratio on WT R3 (P130CAS/BCAR1; replicate R3): 0; Ratio on WT R3 (P130CAS/BCAR1; replicate R3): 1; Log2 ratio on WT R4 (P130CAS/BCAR1; replicate R4): 0; Ratio on WT R4 (P130CAS/BCAR1; replicate R4): 1; Log2 ratio average (PAK1; [2]): 0; Log2 ratio on WT R1 (PAK1; replicate R1): 0; Ratio on WT R1 (PAK1; replicate R1): 1; Log2 ratio on WT R3 (PAK1; replicate R3): 0; Ratio on WT R3 (PAK1; replicate R3): 1; Log2 ratio on WT R4 (PAK1; replicate R4): 0; Ratio on WT R4 (PAK1; replicate R4): 1 |
| YBR234C | 5.488 | 1.638 | 0.1 | 5.2 | 0 | 2.151 | 2.566 | 5.076 | 4.45 | 2.151 |  |
| YER155C |  | 1.311 | 0.1 |  |  |  | 1.649 |  |  |  | medrep (log2 median colony size normalized to plate background, PCA score) (BOI1; 3-8 replicates): 1.496; Ratio (SH3-deleted/WT medrep) (BOI1; [3]): 0.1; Ratio (SH3-deleted/WT medrep) (BOI2; [3]): 0.1 |
| YCR088W (PWATAEYDYDAAEDNELTFVENDKIINIEFVDDDWWLGELEKDGSKGLFPSNYVSLGN) | 5.528 |  |  | 4.931 | 0 | 1.996 | 2.0061 | 4.833 | 4.666 | 1.996 | Ratio (SH3-deleted/WT medrep) (BEM1-1; [3]): 0.1 |
